Measurements: patent US20140079636A1, “TARGETED THERAPEUTICS” (priority 2012, published 2014)

Assay: Tissue distribution of SDC-TRAPs in plasma and tumor (Example 14 extraction procedure)
Conditions: in vivo; Tissue Distribution Data for SDC-TRAP-0076; Time 6 h; read-out: Tumor/Plasma Ratio
Experimental: In order to test the ability SDC-TRAP molecules of the invention to be specifically targeted to tumor cells, the following experiment was performed.
Using the 10 mM stock solutions of the HDC compound and its Hsp90i and drug conjugate in DMSO, spiking solutions were prepared at 0.025, 0.05, 0.1, 0.5, 1, 5, 10, 50, 100, 250, and 500 μM in DMSO. 5 μL of each spiking solution was added to a 96-deep well plate. 50 μL of matrix (plasma thawed over ice or homogenized blank tumor).
Quality control standards were prepared from 5 μL of 0.1, 1, and 10 μM calibration standard spiking solution added in triplicate into 96-deep well plate and adding 50 μL of matrix (plasma or homogenized tumor).
To prepare test samples, test plasma was diluted as needed using blank plasma. Tumor samples were pulverized in liquid nitrogen, weighed, and homogenized in PBS at 5× volume to sample weight. 50 μL of unknown plasma or homogenized tumor sample was mixed with 5 μL of DMSO. The samples were extracted by precipitating calibration standards, QC standards, and unknown samples with 200 μL of internal standard solution. The samples were mixed by vortex at room temperature for approximately 1.5 minutes, then centrifuge at 2-8° C. 150 μL of supernatant was collected and 25 μL of water added. Samples were mixed and analyzed by LC-MS/MS.

## CCNC(=O)c1nnc(-c2cc(C(C)C)c(O)cc2O)n1-c1ccc(CN2CCC(C(=O)N3CCC(C(=O)OC4(CC)C(=O)OCc5c4cc4n(c5=O)Cc5c-4nc4ccc(O)cc4c5CC)CC3)CC2)cc1 (stereo not shown) [SDC-TRAP-0076, 4,11-diethyl-9-hydroxy-3,14-dioxo-3,4,12,14-tetrahydro-1H-pyrano[3′,4′:6,7]indolizino[1,2-b]quinolin-4-yl 1-(1-(4-(3-(2,4-dihydroxy-5-isopropylphenyl)-5-(ethylcarbamoyl)-4H-1,2,4-triazol-4-yl)benzyl)piperidine-4-carbonyl)piperidine-4-carboxylate]
  Kp: 7.25
